This note sets out measurements from PubChem BioAssay (NCI).

Some test systems named below: BT-549 breast; SF-539 CNS; RPMI-8226 leukemia; OVCAR-8 ovarian; SNB-19 CNS; SK-MEL-28 melanoma; HOP-92 NSCLC; UACC-257 melanoma; MDA-MB-231 breast; KM12 colon.
Holding throughout (test): NCI anticancer screen, dose series, 48 h

Structures are written as SMILES. Several values for one entry are separate records, joined by “and”; a condition that tells them apart may be missing. Equal entries are not always repeated.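 How tested: cells in 96-well plates exposed to compound for 48 hours at five concentrations. Here, GI50 denotes the concentration required for 50% inhibition of growth. TGI is the concentration that stops growth completely.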

Consider `Cn1c(C(=O)c2cccc3ccccc23)nc2ccccc21`, for which the GI50 in the experiment with BT-549 breast, in the experiment with SF-539 CNS, in the experiment with RPMI-8226 leukemia, in the experiment with OVCAR-8 ovarian, in the experiment on SNB-19 CNS and in the experiment with SK-MEL-28 melanoma was above 100 µM throughout. The GI50 in the experiment on HOP-92 NSCLC is 35.9 µM; with UACC-257 melanoma, above 100 µM; in the experiment with MDA-MB-231 breast it was above 100 µM; in the experiment with KM12 colon, above 100 µM. In addition, the TGI in the experiment with BT-549 breast, with SF-539 CNS, in the experiment with RPMI-8226 leukemia, in the experiment with OVCAR-8 ovarian, in the experiment with SNB-19 CNS and in the experiment with SK-MEL-28 melanoma was above 100 µM throughout. The TGI with HOP-92 NSCLC, in the experiment on UACC-257 melanoma, with MDA-MB-231 breast and in the experiment with KM12 colon was above 100 µM in each case.
`C[C@H]1CN(C2COC2)CCN1c1ccc(Nc2cc(-c3ccnc(N4CCn5c(cc6c5CC(C)(C)C6)C4=O)c3CO)cn(C)c2=O)nc1`: the GI50 in the experiment with BT-549 breast was 17.7 µM; with SF-539 CNS, 21.4 µM; in the experiment with RPMI-8226 leukemia, 13.1 µM; in the experiment on OVCAR-8 ovarian, 54.3 µM; in the experiment on SNB-19 CNS, 51.2 µM; in the experiment on SK-MEL-28 melanoma it was 39.8 µM. In addition, the GI50 was 12.6 µM in the experiment with HOP-92 NSCLC, 27.6 µM in the experiment with UACC-257 melanoma, 26.1 µM in the experiment with MDA-MB-231 breast and 56.8 µM in the experiment on KM12 colon. Further, the TGI was 55.1 µM in the experiment with BT-549 breast; 66.9 µM with SF-539 CNS; 60.7 µM with RPMI-8226 leukemia; above 100 µM with OVCAR-8 ovarian; above 100 µM in the experiment with SNB-19 CNS; above 100 µM in the experiment on SK-MEL-28 melanoma. For the same molecule, the TGI in the experiment on HOP-92 NSCLC is 64.6 µM; in the experiment on UACC-257 melanoma it was 58.1 µM; with MDA-MB-231 breast, above 100 µM; in the experiment with KM12 colon, above 100 µM.
In the case of `NCc1ccc(-c2nc(-c3ccc(Cl)c(O)c3)c(-c3ccncc3)[nH]2)cc1`, the GI50 in the experiment on BT-549 breast was above 25 µM; in the experiment on SF-539 CNS, above 25 µM; in the experiment on RPMI-8226 leukemia it was above 25 µM; with OVCAR-8 ovarian it was above 25 µM; in the experiment on SNB-19 CNS, above 25 µM; in the experiment with SK-MEL-28 melanoma, 5.3 µM. Also, the GI50 in the experiment with HOP-92 NSCLC is 2.1 µM; in the experiment on UACC-257 melanoma, 3.63 µM; with MDA-MB-231 breast, 11.7 µM; with KM12 colon, above 25 µM. The TGI in the experiment with BT-549 breast, with SF-539 CNS, in the experiment on RPMI-8226 leukemia, with OVCAR-8 ovarian, in the experiment on SNB-19 CNS and with SK-MEL-28 melanoma was above 25 µM each time. The TGI in the experiment on HOP-92 NSCLC is 19.6 µM; in the experiment on UACC-257 melanoma, 17.4 µM; in the experiment with MDA-MB-231 breast it was above 25 µM; in the experiment on KM12 colon it was above 25 µM.
Turning to `c1ccc(CN2COc3c(ccc4c5c(ccc34)CN(Cc3ccccc3)CO5)C2)cc1`, the TGI in the experiment on BT-549 breast, in the experiment with SF-539 CNS, in the experiment with RPMI-8226 leukemia, in the experiment with OVCAR-8 ovarian, in the experiment on SNB-19 CNS and in the experiment with SK-MEL-28 melanoma was above 100 µM throughout. Besides, the TGI in the experiment with HOP-92 NSCLC, in the experiment with UACC-257 melanoma, in the experiment with MDA-MB-231 breast and in the experiment on KM12 colon was above 100 µM each time.
With `CN(C)c1nc(N)c(C#N)c(C#N)c1C#N`, the TGI in the experiment on BT-549 breast, with SF-539 CNS, in the experiment on RPMI-8226 leukemia, in the experiment on OVCAR-8 ovarian, with SNB-19 CNS and in the experiment with SK-MEL-28 melanoma was above 10 µM each time. Further, the TGI in the experiment on HOP-92 NSCLC, with UACC-257 melanoma, in the experiment with MDA-MB-231 breast and in the experiment on KM12 colon was above 10 µM throughout.
For the molecule `CN(C)CCCn1c2c(c3cc4c(cc3c1=O)OCO4)C(=O)c1ccccc1-2`, the GI50 is 5.52 µM with BT-549 breast; 3.57 µM with SF-539 CNS; 0.208 µM in the experiment on RPMI-8226 leukemia; 0.0576 µM with OVCAR-8 ovarian; 2.84 µM with SNB-19 CNS; 4.68 µM in the experiment on SK-MEL-28 melanoma. Moreover, the GI50 in the experiment with HOP-92 NSCLC is 0.713 µM; in the experiment on UACC-257 melanoma, 1.54 µM; with MDA-MB-231 breast it was 0.465 µM; with KM12 colon it was 2.89 µM. Further, the TGI with BT-549 breast is 29 µM; in the experiment on SF-539 CNS, 13.4 µM; with RPMI-8226 leukemia it was 2.82 µM; in the experiment with OVCAR-8 ovarian it was 0.922 µM; with SNB-19 CNS, above 100 µM; in the experiment with SK-MEL-28 melanoma, above 100 µM. For the same molecule, the TGI in the experiment with HOP-92 NSCLC came out at 6.37 µM; in the experiment with UACC-257 melanoma it was 14.9 µM; with MDA-MB-231 breast it was 4.29 µM; in the experiment on KM12 colon it was 14.5 µM.
For `N#CCNC(=O)c1ccc(-c2ccnc(Nc3ccc(N4CCOCC4)cc3)n2)cc1`, the GI50 was 2.24 µM and 1.54 µM in the experiment with BT-549 breast; 2.29 µM and 1.14 µM in the experiment on SF-539 CNS; 3.08 µM and 2.88 µM in the experiment with RPMI-8226 leukemia; 4.26 µM and 3.16 µM in the experiment with OVCAR-8 ovarian; 7.23 µM and 10.2 µM with SNB-19 CNS; 4.49 µM and 2.56 µM in the experiment with SK-MEL-28 melanoma. For the same molecule, the GI50 in the experiment with HOP-92 NSCLC was 0.511 µM and 0.153 µM; in the experiment with UACC-257 melanoma, > 10 µM and 4.39 µM; with MDA-MB-231 breast, 2.26 µM and 2.19 µM; with KM12 colon, 3.23 µM and 3.85 µM. Also, the TGI was > 10 µM and 5.8 µM in the experiment with BT-549 breast; > 10 µM and 10.4 µM with SF-539 CNS; above 31.9 µM in the experiment with RPMI-8226 leukemia; above 73.6 µM in the experiment with OVCAR-8 ovarian; > 10 µM and 78.4 µM in the experiment with SNB-19 CNS; > 10 µM and 20.3 µM with SK-MEL-28 melanoma. The TGI in the experiment with HOP-92 NSCLC was 9.61 µM and 10.7 µM; in the experiment with UACC-257 melanoma, above 100 µM; in the experiment on MDA-MB-231 breast, above 100 µM; in the experiment with KM12 colon, above 74 µM.
Consider `COc1ccc2c(c1)C(=O)c1c-2c(=O)n(CCCN(C)C)c2cc(OC)c(OC)cc12`, for which the GI50 in the experiment on BT-549 breast is 83.6 µM; in the experiment on SF-539 CNS, 3.61 µM; with RPMI-8226 leukemia, 8.14 µM; in the experiment on OVCAR-8 ovarian it was 4.6 µM; in the experiment with SNB-19 CNS, 3.3 µM; in the experiment with SK-MEL-28 melanoma, 17.9 µM. For the same molecule, the GI50 was above 100 µM in the experiment on HOP-92 NSCLC, 16.9 µM in the experiment on UACC-257 melanoma, 14.4 µM with MDA-MB-231 breast and 5.73 µM in the experiment on KM12 colon. Further, the TGI with BT-549 breast was above 100 µM; in the experiment on SF-539 CNS, 14.9 µM; in the experiment on RPMI-8226 leukemia, 42.3 µM; with OVCAR-8 ovarian it was 23 µM; in the experiment with SNB-19 CNS, 20.6 µM; in the experiment with SK-MEL-28 melanoma, 32 µM. Moreover, the TGI in the experiment on HOP-92 NSCLC is above 100 µM; in the experiment on UACC-257 melanoma it was 33 µM; with MDA-MB-231 breast, 28.5 µM; in the experiment with KM12 colon it was 19.8 µM.
